Reference: patent publication US7811797B2, “α-isomaltosylglucosaccharide-forming enzyme, process and uses of the same” (Kabushiki Kaisha Hayashibara Seibutsu Kagaku Kenkyujo, priority 2000, dated 2010)

Tests used:
[1] = test system: α-isomaltosylglucosaccharide-forming enzyme; assay: Action on saccharides (substrates), Enzyme of Strain C9; type: biochemical, Bacillus globisporus C9; parameters: key: −: it showed no change; +: it showed a slight reduction of the color spot of the substrate and the formation of other reaction product; ++: it showed a high reduction of the color spot of the substrate and the formation of other reaction product; +++: it showed a substantial disappearance of the substrate spot and the formation of other reaction product; settings: two units/g substrate, substrate 2% (w/v), 30° C., pH 6.0, 24 hours, TLC
Description: (§1) It was tested whether saccharides can be used as substrates for the α-isomaltosylglucosaccharide-forming enzyme. For the purpose, a solution of maltose, maltotriose, maltotetraose, maltopentaose, maltohexaose, maltoheptaose, isomaltose, isomaltotriose, panose, isopanose, trehalose, kojibiose, nigerose, neotrehalose, cellobiose, gentibiose, maltitol, maltotriitol, lactose, sucrose, erlose, selaginose, maltosyl glucoside, or isomaltosyl glucoside was prepared.
(§2) To each of the above solutions was added two units/g substrate of a purified specimen of α-isomaltosylglucosaccharide-forming enzyme from either Bacillus globisporus C9 obtained by the method in Experiment 4-2, Bacillus globisporus C11 obtained by the method in Experiment 7-2, Bacillus globisporus N75 obtained by the method in Experiment 11-2, or Arthrobacter globiformis A19 obtained by the method in Experiment 15-2, and the resulting each solution was adjusted to give a substrate concentration of 2% (w/v) and incubated at 30° C. and pH 6.0, except for using pH 8.4 for the enzyme from Arthrobacter globiformis A19, for 24 hours. The enzyme solutions before and after the enzymatic reactions were respectively analyzed on TLC disclosed in Experiment 1 to confirm whether the enzymes acted on these substrates.

[2] = test system: α-isomaltosylglucosaccharide-forming enzyme; assay: Action on saccharides (substrates), Enzyme of Strain C11; type: biochemical, Bacillus globisporus C11; parameters: key: −: it showed no change; +: it showed a slight reduction of the color spot of the substrate and the formation of other reaction product; ++: it showed a high reduction of the color spot of the substrate and the formation of other reaction product; +++: it showed a substantial disappearance of the substrate spot and the formation of other reaction product; settings: two units/g substrate, substrate 2% (w/v), 30° C., pH 6.0, 24 hours, TLC
Description: as §1, §2

[3] = test system: α-isomaltosylglucosaccharide-forming enzyme; assay: Action on saccharides (substrates), Enzyme of Strain N75; type: biochemical, Bacillus globisporus N75; parameters: key: −: it showed no change; +: it showed a slight reduction of the color spot of the substrate and the formation of other reaction product; ++: it showed a high reduction of the color spot of the substrate and the formation of other reaction product; +++: it showed a substantial disappearance of the substrate spot and the formation of other reaction product; settings: two units/g substrate, substrate 2% (w/v), 30° C., pH 6.0, 24 hours, TLC
Description: as §1, §2

[4] = test system: α-isomaltosylglucosaccharide-forming enzyme; assay: Action on saccharides (substrates), Enzyme of Strain A19; type: biochemical, Arthrobacter globiformis A19; parameters: key: −: it showed no change; +: it showed a slight reduction of the color spot of the substrate and the formation of other reaction product; ++: it showed a high reduction of the color spot of the substrate and the formation of other reaction product; +++: it showed a substantial disappearance of the substrate spot and the formation of other reaction product; settings: two units/g substrate, substrate 2% (w/v), 30° C., pH 8.4, 24 hours, TLC
Description: as §1, §2

[5] = test system: α-isomaltosylglucosaccharide-forming enzyme; assay: Transfer-acceptor specificity, Enzyme of Strain C9; type: biochemical, Bacillus globisporus C9; settings: acceptor 1.6%, PINE-DEX #100 donor 4%, one unit/g donor, 30° C., pH 6.0, 24 hours
Description: (§3) Using different saccharides, it was tested whether the saccharides were used as transferring-acceptors for the α-isomaltosylglucosaccharide-forming enzyme of the present invention. A solution of D-glucose, D-xylose, L-xylose, D-galactose, D-fructose, D-mannose, D-arabinose, D-fucose, D-psicose, L-sorbose, L-rhamnose, methyl-α-glucopyranoside, methyl-β-glucopyranoside, N-acetyl-glucosamine, sorbitol, trehalose, isomaltose, isomaltotriose, cellobiose, gentibiose, glycerol, maltitol, lactose, sucrose, α-cyclodextrin, β-cyclodextrin, γ-cyclodextrin, or L-ascorbic acid was prepared.
(§4) To each solution with a saccharide concentration of 1.6% was added “PINE-DEX #100”, a partial starch hydrolysate, as a saccharide donor, to give a concentration of 4%, and admixed with one unit/g saccharide donor, d.s.b., of either of purified specimens of α-isomaltosylglucosaccharide-forming enzyme from Bacillus globisporus C9 obtained by the method in Experiment 4-2, Bacillus globisporus C11 obtained by the method in Experiment 7-2, Bacillus globisporus N75 obtained by the method in Experiment 11-2, or Arthrobacter globiformis A19 obtained by the method in Experiment 15-2, and incubated at 30° C. and pH 6.0, except that pH 8.4 was used for the enzyme from Arthrobacter globiformis A19, for 24 hours. The reaction mixtures of the post-enzymatic reactions were analyzed on gas chromatography (abbreviated as “GLC” hereinafter) for monosaccharides and disaccharides as acceptors, and on HPLC for trisaccharides as acceptors to confirm whether these saccharides could be used as their transfer acceptors. In the case of performing GLC, the following apparatuses and conditions are used: GLC apparatus, “GC-16A” commercialized by Shimadzu Corporation, Tokyo, Japan; column, a stainless-steel column, 3 mm in diameter and 2 m in length, packed with 2% “SILICONE OV-17/[…]”, commercialized by GL Sciences Inc., Tokyo, Japan; carrier gas, nitrogen gas at a flow rate of 40 ml/min under temperature conditions of increasing from 160° C. to 320° C. at an increasing temperature rate of 7.5° C./min; and detection, a hydrogen flame ionization detector. In the case of HPLC analysis, the apparatuses and conditions used are: HPLC apparatus, “CCPD” commercialized by Tosoh Corporation, Tokyo, Japan; column, “ODS-AQ-303” commercialized by YMC Co., Ltd., Tokyo, Japan; eluent, water at a flow rate of 0.5 ml/min; and detection, a differential refractometer.

[6] = test system: α-isomaltosylglucosaccharide-forming enzyme; assay: Transfer-acceptor specificity, Enzyme of Strain C11; type: biochemical, Bacillus globisporus C11; settings: acceptor 1.6%, PINE-DEX #100 donor 4%, one unit/g donor, 30° C., pH 6.0, 24 hours
Description: as §3, §4

[7] = test system: α-isomaltosylglucosaccharide-forming enzyme; assay: Transfer-acceptor specificity, Enzyme of Strain N75; type: biochemical, Bacillus globisporus N75; settings: acceptor 1.6%, PINE-DEX #100 donor 4%, one unit/g donor, 30° C., pH 6.0, 24 hours
Description: as §3, §4

[8] = test system: α-isomaltosylglucosaccharide-forming enzyme; assay: Transfer-acceptor specificity, Enzyme of Strain A19; type: biochemical, Arthrobacter globiformis A19; settings: acceptor 1.6%, PINE-DEX #100 donor 4%, one unit/g donor, 30° C., pH 8.4, 24 hours
Description: as §3, §4

| Structure (SMILES) | Enzymatic action, Enzyme of Strain C9 [1] | Enzymatic action, Enzyme of Strain C11 [2] | Enzymatic action, Enzyme of Strain N75 [3] | Enzymatic action, Enzyme of Strain A19 [4] | Product of transferring reaction, Enzyme of Strain C9 [5] | Product of transferring reaction, Enzyme of Strain C11 [6] | Product of transferring reaction, Enzyme of Strain N75 [7] | Product of transferring reaction, Enzyme of Stain A19 [8] |
| --- | --- | --- | --- | --- | --- | --- | --- | --- |
| O=C[C@H](O)[C@@H](O)[C@H](O[C@@H]1O[C@H](CO)[C@@H](O)[C@H](O)[C@H]1O)[C@H](O)CO [Cellobiose] | − | − | − | − | ++ (a saccharide-transferred product was detected in an amount over ten percent through transfer reaction to acceptor) | ++ (a saccharide-transferred product was detected in an amount over ten percent through transfer reaction to acceptor) | ++ (a saccharide-transferred product was detected in an amount over ten percent through transfer reaction to acceptor) | ++ (a saccharide-transferred product was detected in an amount over ten percent through transfer reaction to acceptor) |
| OC[C@H]1O[C@@H](OC[C@H]2OC(O)[C@H](O)[C@@H](O)[C@@H]2O)[C@H](O)[C@@H](O)[C@@H]1O (stereo partly shown) [Gentibiose] | − | − | − | − | ++ (a saccharide-transferred product was detected in an amount over ten percent through transfer reaction to acceptor) | ++ (a saccharide-transferred product was detected in an amount over ten percent through transfer reaction to acceptor) | ++ (a saccharide-transferred product was detected in an amount over ten percent through transfer reaction to acceptor) | + (a saccharide-transferred product was detected in an amount over one percent but less than ten percent through transfer reaction to acceptor) |
| OC[C@H]1O[C@H](OC[C@H]2OC(O)[C@H](O)[C@@H](O)[C@@H]2O)[C@H](O)[C@@H](O)[C@@H]1O (stereo partly shown) [Isomaltose] | − | − | − | − | ++ (a saccharide-transferred product was detected in an amount over ten percent through transfer reaction to acceptor) | ++ (a saccharide-transferred product was detected in an amount over ten percent through transfer reaction to acceptor) | ++ (a saccharide-transferred product was detected in an amount over ten percent through transfer reaction to acceptor) | + (a saccharide-transferred product was detected in an amount over one percent but less than ten percent through transfer reaction to acceptor) |
| OC[C@H]1O[C@H](OC[C@H]2O[C@H](OC[C@H]3OC(O)[C@H](O)[C@@H](O)[C@@H]3O)[C@H](O)[C@@H](O)[C@@H]2O)[C@H](O)[C@@H](O)[C@@H]1O (stereo partly shown) [Isomaltotriose] | − | − | − | − | ++ (a saccharide-transferred product was detected in an amount over ten percent through transfer reaction to acceptor) | ++ (a saccharide-transferred product was detected in an amount over ten percent through transfer reaction to acceptor) | ++ (a saccharide-transferred product was detected in an amount over ten percent through transfer reaction to acceptor) | ∀ (a saccharide-transferred product was detected in an amount less than one percent through transfer reaction to acceptor) |
| OC[C@H]1O[C@@H](O[C@H]2[C@H](O)[C@@H](O)C(O)O[C@@H]2CO)[C@H](O)[C@@H](O)[C@H]1O (stereo partly shown) [Lactose] | − | − | − | − | ++ (a saccharide-transferred product was detected in an amount over ten percent through transfer reaction to acceptor) | ++ (a saccharide-transferred product was detected in an amount over ten percent through transfer reaction to acceptor) | ++ (a saccharide-transferred product was detected in an amount over ten percent through transfer reaction to acceptor) | ++ (a saccharide-transferred product was detected in an amount over ten percent through transfer reaction to acceptor) |
